Measurements taken from patent publication US11001891B2, “Methods for treating Parkinson's disease” (Berg LLC, priority 2016, dated 2021).

Key:
Type in all cases: cell-based, human
PIG3 = PIG3 expression in patient-specific iPSCs after neurotoxin treatment; conditions: rotenone 0-1,000 nm or 6-OHDA 0.5-10 μM, 48 hours
Protocol: (§1) For the experiment, patient-specific iPSCs were prepared by reprogramming primary dermal fibroblasts harvested from the upper arm of PD+ and unaffected donors using a non-integrating, self-replicating polycistronic RNA construct containing the reprogramming factors OCT4, SOX2, KLF4 and GLIS1 (Millipore, Simplicon™) according to published protocols. […] Following the treatment, the amount of PIG3 protein in the cells and cell viability were assessed.

[1] = test system: patient-specific induced pluripotent stem cells (iPSCs); conditions: rotenone 0-1,000 nm or 6-OHDA 0.5-10 μM, 48 hours
Protocol: as §1

SH-SY5Y cells [2] = experiment: PIG3 protein, cleaved PARP and cell death in SH-SY5Y cells treated with 6-OHDA; conditions: 6-OHDA 0, 50 and 100 μm, 48 hours
Protocol: This experiment was similar to the experiment described in Example 1, except that the in vitro chemical model of Parkinson's Disease involved treatment of SH-SY5Y cells with oxidopamine, also known as 6-hydroxydopamine (6-OHDA) or 2,4,5-trihydroxyphenethylamine 6-OHDA is known to have a selective adverse effect on dopaminergic and noradrenergic neurons. The structure of 6-OHDA is shown below:
For the experiment, SH-SY5Y cells were treated with 6-OHDA at a concentration of 0, 50 and 100 μm for 48 hours. Following the treatment, the amount of PIG3 protein in the cells and the extent of SH-SY5Y cell death were assessed. Cells treated with etoposide were used as a positive control. Apoptosis in the treated cells was assessed by measuring the amount of cleaved poly(ADP-ribose) polymerase (PARP).

PIG3 protein = experiment: Time course of PIG3 protein in SH-SY5Y cells after 6-OHDA (immunoblot); conditions: 50 nm 6-OHDA, normalized to actin
Protocol: The purpose of this experiment was to access the effect of overexpression of PIG3 on cell viability and reactive oxygen species (ROS) production. To this end, SH-SY5Y cells stably overexpressing the PIG3 open reading frame (PIG3 ORF) were created and characterized by determining their viability, ROS burden and the amount of PIG3 protein produced in response to treatment with 50 nM 6-OHDA. Cell viability was measured relative to the empty vector control, pLOC (CTRL). ROS burden was estimated using DCFDA fluorescence measured by flow cytometry; and the amount of PIG3 protein was measured by immunoblotting and normalizing the densitometry of immunoreactivity to the amount of actin as a loading control.

LRRK2-PD neurons = conditions: iPSC-derived LRRK2-PD neurons, increasing concentrations of neurotoxin
Protocol: IPSCs were prepared from LRRK2-PD fibroblasts and then differentiated towards excitatory cortical neurons as described in the above examples and following published protocols (e.g., Shi et al., Nat. Neurosci. 2012, 15(3):10.1038; Chamber et al. Nat. Biotechnology, 2009, 27:275-280, the entire contents of which are incorporated herein by reference).

SH-SY5Y cells [3] = experiment: Cell death in SH-SY5Y cells treated with rotenone or 6-OHDA (in vitro chemical model of Parkinson's Disease); conditions: 48 hours rotenone or 6-OHDA in the presence vs absence of inhibitor
Source text: The purpose of this experiment was to test the effect of inhibiting the expression of PIG3 in an in vitro chemical model of Parkinson's Disease. For this experiment, an siRNA capable of inhibiting the expression of PIG3 (PIG3 siRNA) was synthesized and tested in SH-SY5Y cells against a non-targeting […] (NTC).
(§2) The purpose of this experiment was to test the effect of inhibiting the p38 MAPK activity on cell death and the expression of PIG3 in in vitro chemical model of Parkinson's Disease. […] SH-SY5Y cell death and PIG3 mRNA expression were assessed following treatment.
(§3) The purpose of this experiment was to test the effect of inhibiting LRRK2 activity on cell death and the expression of PIG3 in in vitro chemical model of Parkinson's Disease. […] SH-SY5Y cell death and PIG3 mRNA expression were assessed following treatment.

PIG3 mRNA = PIG3 mRNA expression in SH-SY5Y cells treated with rotenone or 6-OHDA in presence of kinase inhibitor; conditions: 48 hours rotenone or 6-OHDA in the presence vs absence of inhibitor
Protocol: as §2, §3

SH-SY5Y cells [4] = experiment: PIG3 protein, cleaved PARP and cell death in SH-SY5Y cells treated with rotenone; conditions: rotenone 0, 50, 100 and 500 nm, 48 hours, immunoblot
Protocol: The purpose of this experiment was to evaluate the expression of PIG3 and cell viability in an in vitro chemical model of Parkinson's Disease.
Following the treatment, the amount of PIG3 protein in the cells and the extent of SH-SY5Y cell death were assessed. Cells treated with etoposide, which is known to induce apoptosis, were used as a positive control. Apoptosis in the treated cells was assessed by measuring the amount of cleaved poly(ADP-ribose) polymerase

Structure (SMILES) | PIG3 expression (PIG3) | iPSC viability [1] | apoptosis (cleaved PARP) / cell death (SH-SY5Y cells [2]) | amount of PIG3 protein (SH-SY5Y cells [2]; immunoblot) | relative amounts of PIG3 protein at different times after treatment (PIG3 protein) | PIG3 protein (LRRK2-PD neurons) | cleaved PARP expression (LRRK2-PD neurons) | cell death (SH-SY5Y cells [3]) | PIG3 mRNA expression (PIG3 mRNA) | amount of PIG3 protein (SH-SY5Y cells [4])
NCCc1cc(O)c(O)cc1O [6-OHDA, 2,4,5-trihydroxyphenethylamine] | increased PIG3 expression | decreased viability | 6-OHDA-induced apoptosis | increased as a function of increasing concentration of 6-OHDA | time-dependent accumulation of PIG3 protein | further increases | further increases |  |  | 
COc1cc(C(=O)N2CCC(N3CCN(C)CC3)CC2)ccc1Nc1ncc2c(n1)N(C)c1ccccc1C(=O)N2C [LRRK2-IN-1] |  |  |  |  |  |  |  | decreased cell death | decreased PIG3 mRNA expression | 
C[S+]([O-])c1ccc(-c2nc(-c3ccncc3)c(-c3ccc(F)cc3)[nH]2)cc1 (centres unmarked) [SB203580] |  |  |  |  |  |  |  | decreased cell death | decreased PIG3 mRNA expression | 
C=C(C)[C@H]1Cc2c(ccc3c2O[C@@H]2COc4cc(OC)c(OC)cc4[C@@H]2C3=O)O1 [rotenone] | increased PIG3 expression |  |  |  |  | further increases |  |  |  | increased as a function of increasing concentration of rotenone
